# Measured values reported in the supplement of paper PMC10307832.
# Legend:
# Experiment in all cases: relative viability (nuclei count vs DMSO), 5 days (fraction); higher = more cells survive
# 201T = system: 201T
# Procedure, shortened: (§1)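 Values are medians from duplicate plates. Each reflects relative viability, defined as the nuclei count of treated wells over that of vehicle wells. Lung cancer cell lines in 1536-well plates were pin-tool dosed one day after seeding with one drug alone or with a fixed anchor-drug dose plus five library-drug doses (not always all listed) in √10 steps, then fixed, stained and imaged at 4× after 5 days.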
# COR-L 105 = system: COR-L 105
# Procedure, shortened: as §1
# EKVX = system: EKVX
# Procedure, shortened: as §1
# H3255 = system: H3255
# Procedure, shortened: as §1
# HARA = system: HARA
# Procedure, shortened: as §1
# HCC-827 = system: HCC-827
# Procedure, shortened: as §1
# HOP-62 = system: HOP-62
# Procedure, shortened: as §1
# LCLC-103H = system: LCLC-103H
# Procedure, shortened: as §1
# LOU-NH91 = system: LOU-NH91
# Procedure, shortened: as §1
# NCI-H1975 = system: NCI-H1975
# Procedure, shortened: as §1
# NCI-H2126 = system: NCI-H2126
# Procedure, shortened: as §1
# NCI-H2228 = system: NCI-H2228
# Procedure, shortened: as §1
# NCI-H23 = system: NCI-H23
# Procedure, shortened: as §1
# NCI-H2405 = system: NCI-H2405
# Procedure, shortened: as §1
# NCI-H3122 = system: NCI-H3122
# Procedure, shortened: as §1
# NCI-H596 = system: NCI-H596
# Procedure, shortened: as §1
# NCI-H650 = system: NCI-H650
# Procedure, shortened: as §1
# NCI-H661 = system: NCI-H661
# Procedure, shortened: as §1
# NCI-H727 = system: NCI-H727
# Procedure, shortened: as §1
# PC-3 [JPC-3] = system: PC-3 [JPC-3]
# Procedure, shortened: as §1
# SK-LU-1 = system: SK-LU-1
# Procedure, shortened: as §1
smiles,measurement,setting,value
Cc1cn(-c2cc(NC(=O)c3ccc(C)c(Nc4nccc(-c5cccnc5)n4)c3)cc(C(F)(F)F)c2)cn1 [Nilotinib] + C[C@]1(O)C[C@@H](c2nc(-c3ccc4ccc(-c5ccccc5)nc4c3)c3c(N)nccn32)C1 [Linsitinib] (partner 1 µM),relative viability,201T; first compound 0.001 µM,0.942
same,relative viability,201T; first compound 0.003162 µM,1.06
same,relative viability,201T; first compound 0.01 µM,1.12
same,relative viability,COR-L 105; first compound 0.001 µM,0.913
same,relative viability,COR-L 105; first compound 0.01 µM,1
same,relative viability,COR-L 105; first compound 0.03162 µM,0.849
same,relative viability,COR-L 105; first compound 0.1 µM,0.823
same,relative viability,EKVX; first compound 0.001 µM,0.866
same,relative viability,EKVX; first compound 0.003162 µM,1.26
same,relative viability,EKVX; first compound 0.01 µM,1.62
same,relative viability,EKVX; first compound 0.03162 µM,0.955
same,relative viability,EKVX; first compound 0.1 µM,1.09
same,relative viability,H3255; first compound 0.001 µM,0.817
same,relative viability,H3255; first compound 0.003162 µM,1.06
same,relative viability,H3255; first compound 0.01 µM,1.2
same,relative viability,H3255; first compound 0.03162 µM,0.875
same,relative viability,H3255; first compound 0.1 µM,0.952
same,relative viability,HARA; first compound 0.001 µM,0.987
same,relative viability,HARA; first compound 0.003162 µM,1.37
same,relative viability,HARA; first compound 0.01 µM,1.3
same,relative viability,HARA; first compound 0.03162 µM,0.742
same,relative viability,HARA; first compound 0.1 µM,0.93
same,relative viability,HCC-827; first compound 0.001 µM,0.944
same,relative viability,HCC-827; first compound 0.003162 µM,1.08
same,relative viability,HCC-827; first compound 0.01 µM,1.08
same,relative viability,HCC-827; first compound 0.1 µM,0.941
same,relative viability,HOP-62; first compound 0.001 µM,0.694
same,relative viability,HOP-62; first compound 0.003162 µM,0.853
same,relative viability,HOP-62; first compound 0.01 µM,0.863
same,relative viability,HOP-62; first compound 0.03162 µM,0.715
same,relative viability,HOP-62; first compound 0.1 µM,0.744
same,relative viability,LCLC-103H; first compound 0.001 µM,1.19
same,relative viability,LCLC-103H; first compound 0.003162 µM,1.17
same,relative viability,LCLC-103H; first compound 0.03162 µM,0.783
same,relative viability,LCLC-103H; first compound 0.1 µM,1.17
same,relative viability,LOU-NH91; first compound 0.001 µM,0.929
same,relative viability,LOU-NH91; first compound 0.003162 µM,1.01
same,relative viability,LOU-NH91; first compound 0.01 µM,0.976
same,relative viability,LOU-NH91; first compound 0.03162 µM,0.926
same,relative viability,LOU-NH91; first compound 0.1 µM,0.917
same,relative viability,NCI-H1975; first compound 0.001 µM,0.913
same,relative viability,NCI-H1975; first compound 0.003162 µM,1.23
same,relative viability,NCI-H1975; first compound 0.01 µM,1.03
same,relative viability,NCI-H1975; first compound 0.03162 µM,0.688
same,relative viability,NCI-H1975; first compound 0.1 µM,0.822
same,relative viability,NCI-H2126; first compound 0.001 µM,0.684
same,relative viability,NCI-H2126; first compound 0.003162 µM,0.806
same,relative viability,NCI-H2126; first compound 0.01 µM,0.827
same,relative viability,NCI-H2126; first compound 0.03162 µM,0.779
same,relative viability,NCI-H2126; first compound 0.1 µM,0.666
same,relative viability,NCI-H2228; first compound 0.001 µM,0.578
same,relative viability,NCI-H2228; first compound 0.003162 µM,0.862
same,relative viability,NCI-H2228; first compound 0.01 µM,0.603
same,relative viability,NCI-H2228; first compound 0.03162 µM,0.657
same,relative viability,NCI-H2228; first compound 0.1 µM,0.623
same,relative viability,NCI-H23; first compound 0.001 µM,0.556
same,relative viability,NCI-H23; first compound 0.003162 µM,0.686
same,relative viability,NCI-H23; first compound 0.01 µM,0.713
same,relative viability,NCI-H23; first compound 0.03162 µM,0.49
same,relative viability,NCI-H23; first compound 0.1 µM,0.579
same,relative viability,NCI-H2405; first compound 0.001 µM,0.976
same,relative viability,NCI-H2405; first compound 0.003162 µM,0.916
same,relative viability,NCI-H2405; first compound 0.01 µM,0.838
same,relative viability,NCI-H2405; first compound 0.03162 µM,0.789
same,relative viability,NCI-H2405; first compound 0.1 µM,0.74
same,relative viability,NCI-H3122; first compound 0.001 µM,1.16
same,relative viability,NCI-H3122; first compound 0.003162 µM,1.11
same,relative viability,NCI-H3122; first compound 0.01 µM,1.16
same,relative viability,NCI-H3122; first compound 0.03162 µM,0.894
same,relative viability,NCI-H3122; first compound 0.1 µM,0.833
same,relative viability,NCI-H596; first compound 0.003162 µM,1.26
same,relative viability,NCI-H596; first compound 0.01 µM,1.28
same,relative viability,NCI-H596; first compound 0.03162 µM,0.812
same,relative viability,NCI-H650; first compound 0.001 µM,0.81
same,relative viability,NCI-H650; first compound 0.003162 µM,0.778
same,relative viability,NCI-H650; first compound 0.01 µM,0.925
same,relative viability,NCI-H650; first compound 0.03162 µM,0.84
same,relative viability,NCI-H650; first compound 0.1 µM,0.686
same,relative viability,NCI-H661; first compound 0.001 µM,0.508
same,relative viability,NCI-H661; first compound 0.003162 µM,0.472
same,relative viability,NCI-H661; first compound 0.01 µM,0.612
same,relative viability,NCI-H661; first compound 0.03162 µM,0.501
same,relative viability,NCI-H661; first compound 0.1 µM,0.586
same,relative viability,NCI-H727; first compound 0.001 µM,0.225
same,relative viability,NCI-H727; first compound 0.01 µM,0.368
same,relative viability,NCI-H727; first compound 0.03162 µM,0.275
same,relative viability,NCI-H727; first compound 0.1 µM,0.263
same,relative viability,PC-3 [JPC-3]; first compound 0.001 µM,0.997
same,relative viability,PC-3 [JPC-3]; first compound 0.003162 µM,1.1
same,relative viability,PC-3 [JPC-3]; first compound 0.01 µM,1.09
same,relative viability,PC-3 [JPC-3]; first compound 0.03162 µM,1.01
same,relative viability,PC-3 [JPC-3]; first compound 0.1 µM,0.927
same,relative viability,SK-LU-1; first compound 0.001 µM,0.916
same,relative viability,SK-LU-1; first compound 0.003162 µM,1.25
same,relative viability,SK-LU-1; first compound 0.01 µM,1.46
same,relative viability,SK-LU-1; first compound 0.03162 µM,0.987
same,relative viability,SK-LU-1; first compound 0.1 µM,0.9
